The text below walks through data of US8110570B2, “Modulators of acetyl-coenzyme A carboxylase and methods of use thereof” (Cropsolution, Inc., priority 2008, dated 2012).

For orientation: pIC50 means −log10 of the IC50, conventionally taken in molar units.

SMILES strings stand for the structures. pIC50: −log10 of the molar value.

The target of one test is T1, hACC1 (Homo sapiens, UniProt Q13085).
T1 construct: PCR primers were designed for full-length hACC1 and hACC2 using GenBank submissions AY237919 and AJ575592, respectively; His tag (C); made in house; host or cells: baculovirus, Sf9 insect cells
Briefly: [14C]bicarbonate incorporation assay, overall ACC activity. It is filed as biochemical. Conditions: recombinant hACC1, overall ACC activity. An outline of the steps:
(§1)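 His-tagged full-length hACC1 or hACC2 (residues 1-148 deleted, Met-Gly added), expressed in sf9 cells with biotin and purified, were assayed by [14C]bicarbonate incorporation into acetyl-CoA. Reactions at pH 7.4 with 2 mM acetyl-CoA, 12 mM NaHCO3 and 1% DMSO were started with 2 mM ATP and run 10 min at 37° C. Acid-stable label was counted and IC50 obtained from dose-response fits.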

The target of another test is T2, hACC2 (Homo sapiens, UniProt O00763).
T2 construct: delete amino acids 1-148 and add Met-Gly in front of Lys149 in the final product; His tag (C); made in house; host or cells: baculovirus, Sf9 insect cells
The description is as above. Type of test: biochemical. Conditions: recombinant hACC2, overall ACC activity. The method, boiled down:
as §1

The test system of test [1] is A2780 human ovary cancer cells. Briefly: MTT Cell Proliferation Assay. It is filed as cell-based. Conditions: 72 hours, read-out: Percent of Control A2780. The method, then: (§2) The anti-proliferative activity of test compounds against human tumor cell lines is evaluated in vitro using the ATCC's MTT Cell Proliferation Assay (Catalog No. 30-100K). Cell lines are grown using media, serum, and culture conditions recommended by the ATCC. Stock cultures are allowed to grow to 70-80% confluence. Cells are seeded into 96-well culture plates at a predetermined density on day 0 in complete medium (0.1 mL). Plates are placed in a humidified incubator at 37° C. with 5% CO2 and 95% HEPA filtered room air for 24 hours. At this point compound (0.1 mL of 2× stock (in media)) is added to the indicated wells and the plates are returned to the incubator for 72 hours. Cell proliferation is measured by addition of MTT reagent to each well and incubated for an additional 4 hours, followed by addition of cell lysis/MTT solublization reagent and incubating overnight. […] Results are expressed as percent of control cells versus compound concentration. Compounds of the present invention, and salts thereof, were evaluated for anti-proliferative activity as described above.

The subject of test [2] is HCT-116 human colon cancer cells. As to the kind of experiment: MTT Cell Proliferation Assay. Type of test: cell-based. To be noted: 72 hours, read-out: Percent of Control HCT-116. The method, then:
as §2

Test [3] concerns MDA-MB-231 human breast cancer cells. As to the kind of experiment: MTT Cell Proliferation Assay. Type of test: cell-based. Conditions: 72 hours, read-out: Percent of Control MDA-MB-231. Here is the method: as §2
The test system of test [4] is PC-3 human prostate cancer cells. As to the kind of experiment: MTT Cell Proliferation Assay. Conditions: 72 hours, read-out: Percent of Control PC-3. It is filed as cell-based. Here is the method: as §2
The subject of test [5] is hepatic fatty acid synthesis. Briefly: In vivo inhibition of rat hepatic fatty acid synthesis. Conditions: oral. Here is the method:
In vivo measurement of fatty acid synthesis inhibition in mammals. Incorporation of [2-^14C]acetate into saponifiable lipids in the livers of mammals (e.g. Sprague Dawley rats, Charles River Laboratories, Boston, Mass. or Harlan Laboratories, Indianapolis, Ind.) can be measured as described previously (Harwood Jr. H. J. et al., J Biol Chem, 39: 37099-37111 (2003)). For example, animals given food and water ad libitum are treated orally at volume of 1.0 ml/200 g of body weight with either an aqueous solution containing 0.5% methyl cellulose (vehicle) or an aqueous solution containing 0.5% methyl cellulose containing test compound. One hour after compound administration, animals receive an intraperitoneal injection of [2-^14C]acetate (0.02 mL, 1 mCi/mL; 50 mCi/mmol. One hour after radiolabel administration, animals are sacrificed by CO2 asphyxiation, and two liver pieces (about 0.75 g each) are removed and saponified at 70° C. for 120 min in 2.5 M NaOH (1.5 mL). After saponification, absolute EtOH (2.5 mL) is added to each sample and the solutions are mixed and allowed to stand overnight. Petroleum ether (4.8 mL) is then added to each sample, and after vigorous shaking (2 min) the mixtures are centrifuged at 1000×g (5 min). The petroleum ether layer containing the nonsaponifiable lipids is removed and discarded. The remaining aqueous layer is acidified (pH<2) by addition of 12 M HCl (0.6 mL) and extracted two times with petroleum ether (4.8 mL). The pooled organic fractions are transferred to liquid scintillation vials, dried under nitrogen, dissolved in Aquasol scintillation fluid (7 ml), and radioactivity is quantified by liquid scintillation counting. Inhibition of fatty acid synthesis by the test compound is expressed as a relative percent inhibition of measured incorporation of [2-^14C]acetate into saponifiable lipids during the interval between [2-^14C]acetate injection and CO2 asphyxiation in animals receiving test compound, compared to control animals receiving only the vehicle.
Compounds of the present invention, and salts thereof, were evaluated for inhibition of fatty acid synthesis as described above.

In test [6] the target is uACC (Ustilago maydis ACC) (Ustilago maydis, UniProt A0A0D1DYD5). As to the kind of experiment: [14C]bicarbonate incorporation assay, overall ACC activity. Type of test: biochemical.
Sequence of uACC (Ustilago maydis ACC) (A0A0D1DYD5 entry or part of it): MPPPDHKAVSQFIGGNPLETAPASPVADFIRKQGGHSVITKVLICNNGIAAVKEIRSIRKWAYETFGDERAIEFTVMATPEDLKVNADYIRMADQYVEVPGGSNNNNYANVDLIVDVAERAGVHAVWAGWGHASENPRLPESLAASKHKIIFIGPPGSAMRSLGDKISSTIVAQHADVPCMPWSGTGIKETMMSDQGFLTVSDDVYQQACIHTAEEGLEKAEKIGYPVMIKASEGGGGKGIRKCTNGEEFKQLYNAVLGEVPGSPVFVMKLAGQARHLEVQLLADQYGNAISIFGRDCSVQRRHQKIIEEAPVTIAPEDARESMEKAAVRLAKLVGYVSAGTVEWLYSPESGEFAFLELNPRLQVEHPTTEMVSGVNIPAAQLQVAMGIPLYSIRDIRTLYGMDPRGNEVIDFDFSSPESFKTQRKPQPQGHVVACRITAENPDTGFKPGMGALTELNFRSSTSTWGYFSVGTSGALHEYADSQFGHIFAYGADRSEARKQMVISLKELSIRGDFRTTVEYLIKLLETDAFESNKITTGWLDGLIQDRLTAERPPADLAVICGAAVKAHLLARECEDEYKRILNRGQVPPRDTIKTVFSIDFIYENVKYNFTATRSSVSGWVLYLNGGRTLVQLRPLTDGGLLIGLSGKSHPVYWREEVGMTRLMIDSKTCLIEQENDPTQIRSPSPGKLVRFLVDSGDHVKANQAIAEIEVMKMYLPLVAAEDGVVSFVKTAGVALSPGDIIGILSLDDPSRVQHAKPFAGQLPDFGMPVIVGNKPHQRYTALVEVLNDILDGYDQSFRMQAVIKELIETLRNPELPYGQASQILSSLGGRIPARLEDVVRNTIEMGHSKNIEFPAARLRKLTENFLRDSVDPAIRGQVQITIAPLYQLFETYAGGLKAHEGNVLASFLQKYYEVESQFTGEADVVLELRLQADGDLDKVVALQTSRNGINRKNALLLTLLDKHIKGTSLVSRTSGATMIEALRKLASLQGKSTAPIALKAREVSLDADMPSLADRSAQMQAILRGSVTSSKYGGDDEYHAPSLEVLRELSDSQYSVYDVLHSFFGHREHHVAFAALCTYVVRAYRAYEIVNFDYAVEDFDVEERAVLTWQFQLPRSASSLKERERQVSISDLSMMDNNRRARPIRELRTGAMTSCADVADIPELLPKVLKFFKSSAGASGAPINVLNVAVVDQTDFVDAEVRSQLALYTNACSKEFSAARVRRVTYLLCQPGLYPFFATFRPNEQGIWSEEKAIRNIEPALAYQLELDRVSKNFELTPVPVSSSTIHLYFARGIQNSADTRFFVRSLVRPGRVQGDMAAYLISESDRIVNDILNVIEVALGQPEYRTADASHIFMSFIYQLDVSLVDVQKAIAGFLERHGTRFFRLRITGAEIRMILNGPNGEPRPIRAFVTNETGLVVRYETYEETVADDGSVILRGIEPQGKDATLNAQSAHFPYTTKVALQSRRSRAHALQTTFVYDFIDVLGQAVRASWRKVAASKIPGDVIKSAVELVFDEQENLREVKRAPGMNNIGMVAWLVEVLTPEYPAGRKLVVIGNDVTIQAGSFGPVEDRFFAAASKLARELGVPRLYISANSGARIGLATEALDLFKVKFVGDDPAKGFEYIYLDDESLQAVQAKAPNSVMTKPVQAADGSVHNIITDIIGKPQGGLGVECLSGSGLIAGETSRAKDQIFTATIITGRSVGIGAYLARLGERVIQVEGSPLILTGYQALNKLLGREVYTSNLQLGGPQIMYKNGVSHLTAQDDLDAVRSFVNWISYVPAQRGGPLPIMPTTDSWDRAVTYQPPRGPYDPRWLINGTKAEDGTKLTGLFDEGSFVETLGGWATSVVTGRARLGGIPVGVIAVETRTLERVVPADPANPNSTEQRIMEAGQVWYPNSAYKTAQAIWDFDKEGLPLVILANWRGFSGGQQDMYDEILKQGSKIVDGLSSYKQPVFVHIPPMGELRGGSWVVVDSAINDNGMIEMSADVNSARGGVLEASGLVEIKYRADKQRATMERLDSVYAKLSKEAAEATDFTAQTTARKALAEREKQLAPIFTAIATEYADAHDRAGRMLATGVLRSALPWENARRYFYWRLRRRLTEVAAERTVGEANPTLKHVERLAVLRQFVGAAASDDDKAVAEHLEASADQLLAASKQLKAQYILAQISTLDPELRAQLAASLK

T2 sequence (O00763 149-2458 limits assumed): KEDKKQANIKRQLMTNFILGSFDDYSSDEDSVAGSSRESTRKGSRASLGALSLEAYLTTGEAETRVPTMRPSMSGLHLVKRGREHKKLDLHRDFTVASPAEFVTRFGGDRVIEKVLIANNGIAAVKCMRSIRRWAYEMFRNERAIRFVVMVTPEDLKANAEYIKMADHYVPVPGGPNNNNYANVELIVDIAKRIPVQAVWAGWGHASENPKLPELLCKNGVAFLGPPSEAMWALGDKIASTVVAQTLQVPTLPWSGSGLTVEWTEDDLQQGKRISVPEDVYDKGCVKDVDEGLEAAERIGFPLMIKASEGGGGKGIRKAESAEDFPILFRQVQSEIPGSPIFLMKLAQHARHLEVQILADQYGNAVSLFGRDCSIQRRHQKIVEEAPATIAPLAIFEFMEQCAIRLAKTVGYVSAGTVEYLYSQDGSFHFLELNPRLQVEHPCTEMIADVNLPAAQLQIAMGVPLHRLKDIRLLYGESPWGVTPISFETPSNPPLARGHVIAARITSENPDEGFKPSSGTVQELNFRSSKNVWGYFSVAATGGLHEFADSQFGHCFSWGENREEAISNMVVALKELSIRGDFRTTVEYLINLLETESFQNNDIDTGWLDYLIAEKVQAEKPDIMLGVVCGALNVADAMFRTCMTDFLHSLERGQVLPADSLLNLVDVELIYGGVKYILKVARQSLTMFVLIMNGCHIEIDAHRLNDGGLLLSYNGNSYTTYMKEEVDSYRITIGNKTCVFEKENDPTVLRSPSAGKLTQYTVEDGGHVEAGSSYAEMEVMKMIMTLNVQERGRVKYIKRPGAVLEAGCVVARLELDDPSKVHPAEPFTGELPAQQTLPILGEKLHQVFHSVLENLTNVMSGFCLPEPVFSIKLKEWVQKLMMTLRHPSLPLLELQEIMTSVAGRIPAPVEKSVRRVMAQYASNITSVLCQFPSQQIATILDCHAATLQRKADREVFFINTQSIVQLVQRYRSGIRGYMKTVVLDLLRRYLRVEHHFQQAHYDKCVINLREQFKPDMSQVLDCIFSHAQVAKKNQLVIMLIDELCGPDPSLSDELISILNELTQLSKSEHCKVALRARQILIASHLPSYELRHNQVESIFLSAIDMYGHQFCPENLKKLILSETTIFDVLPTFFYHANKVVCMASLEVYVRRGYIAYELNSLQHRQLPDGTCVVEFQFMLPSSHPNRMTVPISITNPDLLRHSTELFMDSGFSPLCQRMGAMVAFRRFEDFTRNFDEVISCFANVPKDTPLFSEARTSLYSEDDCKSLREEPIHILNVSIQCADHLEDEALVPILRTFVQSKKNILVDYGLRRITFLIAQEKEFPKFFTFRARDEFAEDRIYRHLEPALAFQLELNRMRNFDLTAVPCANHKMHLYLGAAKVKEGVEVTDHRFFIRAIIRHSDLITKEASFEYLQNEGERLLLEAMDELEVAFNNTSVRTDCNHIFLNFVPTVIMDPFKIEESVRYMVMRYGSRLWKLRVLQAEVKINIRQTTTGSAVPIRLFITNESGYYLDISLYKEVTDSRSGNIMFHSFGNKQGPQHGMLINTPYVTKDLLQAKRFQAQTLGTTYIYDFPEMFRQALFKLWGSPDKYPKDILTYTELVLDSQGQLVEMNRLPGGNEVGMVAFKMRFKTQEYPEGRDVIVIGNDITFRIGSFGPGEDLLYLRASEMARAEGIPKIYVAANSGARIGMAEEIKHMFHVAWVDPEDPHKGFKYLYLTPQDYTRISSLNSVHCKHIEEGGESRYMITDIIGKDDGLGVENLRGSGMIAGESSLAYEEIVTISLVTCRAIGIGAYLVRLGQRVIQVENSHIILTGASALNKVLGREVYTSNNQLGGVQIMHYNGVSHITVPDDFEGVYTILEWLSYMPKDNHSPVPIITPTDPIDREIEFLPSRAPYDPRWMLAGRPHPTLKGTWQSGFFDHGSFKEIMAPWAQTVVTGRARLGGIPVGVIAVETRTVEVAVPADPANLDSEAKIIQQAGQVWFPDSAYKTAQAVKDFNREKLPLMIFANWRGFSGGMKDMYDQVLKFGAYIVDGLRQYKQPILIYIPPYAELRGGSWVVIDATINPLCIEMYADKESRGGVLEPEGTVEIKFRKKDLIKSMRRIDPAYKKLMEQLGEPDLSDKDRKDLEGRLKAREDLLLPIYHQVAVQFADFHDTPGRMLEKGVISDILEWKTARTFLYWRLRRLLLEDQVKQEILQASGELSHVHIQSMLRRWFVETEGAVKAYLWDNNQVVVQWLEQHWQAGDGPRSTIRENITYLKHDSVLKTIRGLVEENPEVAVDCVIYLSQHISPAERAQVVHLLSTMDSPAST

As for `COc1cc(C(=O)N2CCC3(CC2)NC(=O)c2cc(N4CCOCC4)ccc2O3)nc2c(OC)cccc12` [Compound 196], the pIC50 at hACC1 is 6.70; at hACC2, 7.68. The activity at 3.3 µM turned out to be 81.6% in test [1], 63.6% in test [2], 73.7% in test [3] and 50.7% in test [4]. Moreover, the activity at 10 µM in test [1] turned out to be 56.4%; in test [2], 58.5%; in test [3], 56.1%; in test [4], 39%. For the same compound, in test [5], the “Percent Inhibition at 10 mg/Kg” value came to 67%.

Consider `COc1cc(C(=O)N2CCC3(CC2)NC(=O)c2cc(C(C)C)ccc2O3)nc2c(OC)cccc12` [Compound 186], for which the pIC50 at hACC1 and on hACC2 was 8.70 in each case. For the same compound, the activity at 3.3 µM in test [1] came to 59.5%; in test [2] it was 53.6%; in test [3], 74.2%; in test [4], 48.9%. The activity at 10 µM in test [1] stood at 52.1%; in test [2], 41.8%; in test [3] it was 39.2%; in test [4], 33.2%. For the same compound, in test [5], the “Percent Inhibition at 10 mg/Kg” value came out at 55%. The “Percent Inhibition at 30 mg/Kg” value in test [5] came to 78%.

Turning to `CCOc1ccc2c(c1)C(=O)NC1(CCN(C(=O)c3cc(OC)c4cccc(OC)c4c3)CC1)O2` [Compound 146, 1′-[(4,8-Dimethoxynaphth-2-yl)carbonyl]-6-ethoxyspiro[2H-1,3-benzoxazin-2,4′-piperidin]-4-(3H)-one], the values for the pIC50 (at hACC1; at hACC2; in test [6]) were 8.30, 8.40 and 5.52, respectively.

Take `CCOc1ccc2c(c1)C(=O)NC1(CCN(C(=O)c3[nH]c4c(OC)cccc4c3C)CC1)O2` [Compound 144]: the pIC50 at hACC1 was 7.21; at hACC2 it was 7.06; in test [6], 4.85. The activity at 3.3 µM was found to be 65% in test [1], 64.9% in test [2], 88.9% in test [3] and 76.5% in test [4]. Moreover, the activity at 10 µM in test [1] was found to be 25.1%; in test [2] it was 39.1%; in test [3], 34.5%; in test [4], 67.2%. Also, the “Percent Inhibition at 30 mg/Kg” value in test [5] is 9%.

As to `COc1cc2c(OC)cccc2cc1C(=O)N1CCC2(CC1)NC(=O)c1cc(Br)ccc1O2` [Compound 3, 6-Bromo-1′-[(3,5-dimethoxynaphth-2-yl)carbonyl]spiro[2H-1,3-benzoxazine-2,4′-piperidine]-4(3H)-one], the figures for the pIC50 (on hACC1; at hACC2; in test [6]) were 6.07, 6.54 and 4.05, respectively.

Consider `CCOc1ccc2c(c1)C(=O)NC1(CCN(C(=O)c3cc(OC)c4cccc(OC)c4n3)CC1)O2` [Compound 139], for which the pIC50 was 7.30 at hACC1, 7.48 on hACC2 and 4.70 in test [6]. In addition, the activity at 3.3 µM turned out to be 85.9% in test [1], 68.4% in test [2], 70.3% in test [3] and 57% in test [4]. Also, the activity at 10 µM in test [1] was 60.1%; in test [2], 49.9%; in test [3], 46.4%; in test [4] it was 54.7%.

Turning to `O=C1NC2(CCN(C(=O)c3sc4ccccc4c3Cl)CC2)Oc2ccc(Br)cc21` [Compound 1, 6-Bromo-1′-[(3-chlorobenzothien-2-yl)carbonyl]spiro[2H-1,3-benzoxazine-2,4′-piperidine]-4(3H)-one], the pIC50 is 5.22 on hACC1, 5.27 on hACC2 and 3.80 in test [6].

For the compound `COc1cc(C(=O)N2CCC3(CC2)NC(=O)c2cc(OC(F)(F)F)ccc2O3)nc2c(OC)cccc12` [Compound 172], at hACC1, the pIC50 is 8.15. In addition, the activity at 3.3 µM is 97.4% in test [1], 61.4% in test [2], 54.1% in test [3] and 63% in test [4]. Moreover, the activity at 10 µM in test [1] was 65.5%; in test [2] it was 41.6%; in test [3], 29.5%; in test [4], 55.7%. The “Percent Inhibition at 10 mg/Kg” value in test [5] is listed as 5%.
